Patent publication US20240287470A1 (priority 2023, published 2024)
Counter-ions that a name gives are not always drawn. Like-named read-outs stand apart in the source and are kept apart here.

How the values were obtained:
[1] = tested on: HEK293 cells; assay type: cell-based; conditions: detergent 0.5% w/v, then 0.2% DB
[2] = tested on: HEK293 cells; experiment: CHAPS evaluated at larger scale (1 L bioreactor); assay type: cell-based; conditions: final concentration 0.5% w/v
Procedure: CHAPS was identified as a potential detergent candidate in the small scale screens and was evaluated at a larger scale (1 L bioreactor) at a final concentration of 0.5% w/v.

[3] = tested on: HEK293 cells; experiment: CTAB modifier screen: vg recovery in clarified lysate and loose resin affinity elution; assay type: cell-based; conditions: LCD, 0.5% w/v CTAB
Procedure: The modifiers were selected based on their potential to interfere with and inhibit non-specific binding of rAAV3B capsids to heparin sulfate proteoglycan receptors on cells and cell lysis debris. Using 10 mL cell culture aliquots, modifiers were delivered to the culture at the concentrations shown in Table 3 and mixed for 10 min at room temperature (RT) prior to addition of the CTAB lysis detergent. CTAB was added to a final concentration of 0.5% w/v. Fold improvement in productivity was calculated by dividing total vector genomes (vgs) measured by qPCR quantification of copies of the vector transgene in product produced by a test condition over total vgs produced using 0.5% octoxynol-9 and 0.2% DB as the control lysis and flocculation condition. Total vgs were measured in the clarified lysate and in eluate produced by loose resin affinity purification of the clarified lysate. Conditions which produced greater than 2-fold improvement are highlighted in bold in Table 3.

[4] = cited from earlier work
[5] = tested on: pseudo rabies virus (PRV)
[6] = tested on: Murine leukemia virus (MuLV)
[7] = No modifier, LCD (approximately 12E+6 cells/mL), rAAV3B vector
[8] = modifier 80 μM CSE (chondroitin sulfate E)
[9] = modifier 80 μM SOS (sucrose octasulfate)
[10] = modifier 400 ug/mL low molecular weight (LMW) Dextran
[11] = 0.025% CTAB, 90 mins, value from titer plate
[12] = 0.05% CTAB, 90 mins, value from large volume plating
[13] = 0.25% CTAB, 90 mins, value from large volume plating
[14] = 0.5% octoxynol-9, 90 mins, value from large volume plating

## C[C@H](CCC(=O)NCCC[N+](C)(C)CCCS(=O)(=O)[O-])[C@H]1CC[C@H]2[C@@H]3[C@H](O)C[C@@H]4C[C@H](O)CC[C@]4(C)[C@H]3C[C@H](O)[C@]12C [CHAPS, 3-[(3-cholamidopropyl)dimethylammonio]-1-propanesulfonate]
[1]; 0.2M Arginine modifier, LCD
  Fold improvement over octoxynol-9 and DB control (capsid recovery in clarified lysate): 1.0 fold
[1]; 0.7M NaCl modifier, LCD
  Fold improvement over octoxynol-9 and DB control (capsid recovery in clarified lysate): 1.6 fold
[1]; [7]
  Fold improvement over octoxynol-9 and DB control (capsid recovery in clarified lysate): 2.1 fold
[2]
  recovery improvement at larger scale: failed to provide the same recovery improvement at large scale as at small scale

## CCCCCCCCCCCCCCCC[N+](C)(C)C.[Br-] [CTAB, cetyltrimethylammonium bromide]
[3]; [8]
  fold productivity over octoxynol-9/DB control - affinity elution: 0.05 fold
  fold productivity over octoxynol-9/DB control - clarified lysate: 1.22 fold
[3]; [9]
  fold productivity over octoxynol-9/DB control - affinity elution: 3.20 fold
  fold productivity over octoxynol-9/DB control - clarified lysate: 2.61 fold
[3]; [10]
  fold productivity over octoxynol-9/DB control - affinity elution: 1.20 fold
  fold productivity over octoxynol-9/DB control - clarified lysate: 0.14 fold
[3]; modifier 6 mM ZnSO4
  fold productivity over octoxynol-9/DB control - affinity elution: 2.41 fold
  fold productivity over octoxynol-9/DB control - clarified lysate: 1.86 fold
[3]; modifier 50 mM MgSO4
  fold productivity over octoxynol-9/DB control - affinity elution: 7.77 fold
  fold productivity over octoxynol-9/DB control - clarified lysate: 3.21 fold
[3]; no modifier
  fold productivity over octoxynol-9/DB control - affinity elution: 3.81 fold
  fold productivity over octoxynol-9/DB control - clarified lysate: 2.81 fold
[1]; No modifier, HCD (approximately 18E+6 cells/mL), rAAV3B vector
  Fold improvement over octoxynol-9 and DB control (capsid recovery in clarified lysate): 2.8 fold
[1]; [7]
  Fold improvement over octoxynol-9 and DB control (capsid recovery in clarified lysate): 1.6 fold
[4]; in water in the presence of MgSO4
  critical micelle concentration: about 0.63 mM
[4]; in water
  critical micelle concentration: about 1.04 mM
[5]; 0.025% CTAB, 90 mins
  Process demonstrated viral removal or inactivation (Log reduction >1): Did not demonstrate inactivation
[5]; [11]
  Minimum reduction values Run 1: 0.71 ± 0.44 Log
  Minimum reduction values Run 2: 0.71 ± 0.39 Log
[5]; 0.05% CTAB, 90 mins
  Process demonstrated viral removal or inactivation (Log reduction >1): Demonstrated inactivation
[5]; [12]
  Minimum reduction values Run 1: ≥4.31 ± 0.27 Log
  Minimum reduction values Run 2: ≥4.67 ± 0.21 Log
[5]; 0.25% CTAB, 90 mins
  Process demonstrated viral removal or inactivation (Log reduction >1): Demonstrated inactivation
[5]; [13]
  Minimum reduction values Run 1: ≥4.73 ± 0.25 Log
  Minimum reduction values Run 2: ≥4.73 ± 0.31 Log

## C[C@H](CCC(=O)O)[C@H]1CC[C@H]2[C@@H]3CC[C@@H]4C[C@H](O)CC[C@]4(C)[C@H]3C[C@H](O)[C@]12C [DOC, deoxycholic acid sodium salt]
[1]; [7]
  Fold improvement over octoxynol-9 and DB control (capsid recovery in clarified lysate): 0.1 fold

## CCCCCCCCCCCC(=O)OCCOCCOCCOCCOCCOCCOCCOCCOCCOCCOCCOCCOCCOCCOCCOCCOCCOCCOCCOCCOCC(OCCOCCOCCOCCOCCOCCOCCOCCOCCOCCOCCOCCOCCOCCOCCOCCOCCOCCOCCOCCO)C1OCC(OCCOCCOCCOCCOCCOCCOCCOCCOCCOCCOCCOCCOCCOCCOCCOCCOCCOCCOCCOCCO)C1OCCOCCOCCOCCOCCOCCOCCOCCOCCOCCOCCOCCOCCOCCOCCOCCOCCOCCOCCOCCO (stereo not shown) [PS20, polysorbate 20]
[1]; 0.2M Arginine modifier, LCD
  Fold improvement over octoxynol-9 and DB control (capsid recovery in clarified lysate): 1.8 fold
[1]; 0.7M NaCl modifier, LCD
  Fold improvement over octoxynol-9 and DB control (capsid recovery in clarified lysate): 0.7 fold
[1]; [7]
  Fold improvement over octoxynol-9 and DB control (capsid recovery in clarified lysate): 0.5 fold

## CCCCCCCCCCCCOS(=O)(=O)[O-].[Na+] [SDS, sodium dodecyl sulfate]
[1]; 0.2M Arginine modifier, LCD
  Fold improvement over octoxynol-9 and DB control (capsid recovery in clarified lysate): 0.9 fold
[1]; 0.7M NaCl modifier, LCD
  Fold improvement over octoxynol-9 and DB control (capsid recovery in clarified lysate): 0.2 fold
[1]; [7]
  Fold improvement over octoxynol-9 and DB control (capsid recovery in clarified lysate): 0.1 fold

## CCCCCCCCCCCC(=O)N(C)CC(=O)[O-].[Na+] [sarkosyl]
[1]; [7]
  Fold improvement over octoxynol-9 and DB control (capsid recovery in clarified lysate): 0.3 fold

## Octoxynol-9 [reference compound]
[6]
  Minimum reduction values Run 1: ≥4.43 ± 0.25 Log
  Minimum reduction values Run 2: ≥4.49 ± 0.27 Log
  Process demonstrated viral removal or inactivation (Log reduction >1): Demonstrated inactivation
[5]; 0.5% octoxynol-9, 90 mins
  Process demonstrated viral removal or inactivation (Log reduction >1): Demonstrated inactivation
[5]; [14]
  Minimum reduction values Run 1: ≥4.43 ± 0.28 Log
  Minimum reduction values Run 2: ≥4.19 ± 0.18 Log
